By GI50 is commonly meant the concentration that inhibits growth by half.

The test system of series [1] is 3 prostate and 3 bladder cancer cells. Briefly: MTT cell proliferation assay on a variety of cancer cells (FIG. 10). The class given is cell-based, human. On the procedure:
(§1) To evaluate anti-tumoral activity of the modified FK228 analogues, human transitional carcinoma cell lines T24, TCCSUP, 253J and human prostate cancer cell lines PC-3, LNCaP, Du-145 were cultured in T medium (Invitrogen) supplemented with 5% fetal bovine serum and 1% penicillin-streptomycin. 2×10^3 Cells in 50 μL of medium were plated into each well of a 96-well plate one day before adding compound. Each compound was diluted with DMSO to two folds of the concentrations, then 50 μL of the compound-containing medium was added into cells. Each treatment was in triplicate. Three days later, cell proliferation was measured with a cell proliferation kit (Roche). Briefly, 10 μL of MTT (3-[4,5-dimethylthiazol-2-yl]-2,5-diphenyl tetrazolium bromide) was added into each well for 4 hours, then 100 μL of the solubilization solution was added and cells were incubated for overnight. The spectrophotometrical absorbance of the samples was measured with a SpectraMax M5 plate reader (Molecular Devices) at 565 nm. The data were presented as percentage inhibition using non-treated cells as control.
FIGS. 9-11 are graphs showing dose-dependent growth inhibition of cancer cells (prostate and bladder cancers) by modified FK228 analogues. […] FIG. 10 includes the general structure in FIG. 10A including R groups. […]
For orientation: Tetrazolium assays rely on reduction of a dye to a coloured formazan, in cell work by metabolically active cells.

The subject of a further series is prostate cancer cells. The class given is cell-based, human. Here is the method:
as §1
FIGS. 9-11 are graphs showing dose-dependent growth inhibition of cancer cells (prostate and bladder cancers) by modified FK228 analogues. […] FIG. 10 includes the general structure in FIG. 10A including R groups. The R groups are defined in FIG. 10B and growth inhibition for the specific composition depicted in FIG. 10B are shown in FIG. 10C. […] Similarly, FIG. 11 includes the general structure in FIG. 1A including R groups. The R groups are defined in FIG. 1B and growth inhibition for the specific composition depicted in FIG. 10B are shown in FIG. 1C. […] FIG. 11A is a structure of the modified FK228 analogues and the side chain functional groups of the structure in FIG. 11A is shown in FIG. 11B. FIG. 11C is a graph of the activity as a function of side chain seen in FIG. 11B.

Another series concerns K562 cells. Briefly: Cell viability of K562 cells treated for γ-globin expression study. The conditions noted are these: about 48 hours, about 0.3 μM. The class given is cell-based. On the procedure:
The synthesized modified FK228 analogues of the present invention were assessed to examine their capability to induce γ-globin expression. K562 cells were treated with the synthesized modified FK228 analogues at various concentrations (e.g., between about 0.01 nM and about 10 μM) for about 48 hours and expression of γ-globin was determined by real-time PCR as well as checking cell viability.

The structures appear in SMILES notation. Starred links: 1 amine or outer side, 2 acyl side, 3 side chain; linkers in the order of their positions; H or OH if unused. Positions of bridges follow the written chain, without caps; N, C: chain ends. Non-standard residues stand in square brackets, D forms with d. Residues, ends and D or L forms follow the SMILES beside them. 1Nal = N[C@@H](Cc1cccc2ccccc12)C(=O)O; 2Nal = N[C@@H](Cc1ccc2ccccc2c1)C(=O)O; Cysteamide = C(CS[*:3])N[*:1]

Take `CC(C)[C@H]1NC(=O)C[C@@H]2NC(=O)[C@H](Cc3ccccc3)NC(=O)[C@H](Cc3ccccc3)NC(=O)[C@@H](CSSCCNC2=O)NC1=O` [JMA26] ([dV][dC]FFD-Cysteamide; disulfide 2-C; lactam N-5): the “cytotoxicity on a variety of cancer cells” value in series [1] is “high cytotoxicity”. In the series on prostate cancer cells, this compound registered a concentration for 50% growth inhibition (GI50) of 460 nM.
`CC(C)[C@H]1NC(=O)C[C@@H]2NC(=O)[C@H](Cc3ccccc3)NC(=O)[C@H](Cc3ccc4ccccc4c3)NC(=O)[C@@H](CSSCCNC2=O)NC1=O` [JMA46] ([dV][dC][2Nal]FD-Cysteamide; disulfide 2-C; lactam N-5) gave a GI50 in the series with prostate cancer cells of 170 nM. That is a sub-micromolar value.
Still for that read-out and setting: the same measure for `CC(C)[C@H]1NC(=O)C[C@@H]2NC(=O)[C@H](Cc3ccc4ccccc4c3)NC(=O)[C@H](Cc3ccc4ccccc4c3)NC(=O)[C@@H](CSSCCNC2=O)NC1=O` [JMA33] ([dV][dC][2Nal][2Nal]D-Cysteamide; disulfide 2-C; lactam N-5): 33 nM; for `CC(C)[C@H]1NC(=O)C[C@@H]2NC(=O)[C@H](Cc3cccc4ccccc34)NC(=O)[C@H](Cc3cccc4ccccc34)NC(=O)[C@@H](CSSCCNC2=O)NC1=O` [JMA47] ([dV][dC][1Nal][1Nal]D-Cysteamide; disulfide 2-C; lactam N-5): 47 nM.
As for `CC(/C=C/C(=O)NO)=C\[C@@H](C)C(=O)c1ccc(N(C)C)cc1` [TSA, Trichostatin A], the cell viability in the series on K562 cells was 30-40%.
